Data: the NIST ThermoML archive (doi:10.1021/acs.jced.6b00691)

Assay: xn = mol fraction of the nth substance listed
Conditions: Liquid, Taylor dispersion method, x2 = 0

CC(C)CCCC(C)CCCC(C)CCCCC(C)CCCC(C)CCCC(C)C (centres undefined) [2,6,10,15,19,23-hexamethyltetracosane] + O=C=O
Conditions	binary diffusion coefficient [m2/s]
298 K, 1100 kPa	9.6e-10
298 K, 10000 kPa	8.6e-10
298 K, 32000 kPa	6.9e-10
298 K, 52000 kPa	5.6e-10
298 K, 66000 kPa	4.9e-10
323 K, 1100 kPa	1.78e-09
323 K, 10000 kPa	1.61e-09
323 K, 30000 kPa	1.35e-09
323 K, 52000 kPa	1.14e-09
323 K, 64000 kPa	1.02e-09
348 K, 1000 kPa	2.83e-09
348 K, 11000 kPa	2.57e-09
348 K, 31000 kPa	2.18e-09
348 K, 50000 kPa	1.94e-09
348 K, 67000 kPa	1.73e-09
373 K, 1000 kPa	4.06e-09
373 K, 10000 kPa	3.72e-09
373 K, 30000 kPa	3.21e-09
373 K, 47000 kPa	2.88e-09
373 K, 66000 kPa	2.58e-09
398 K, 1000 kPa	5.45e-09
398 K, 11000 kPa	4.98e-09
398 K, 31000 kPa	4.38e-09
398 K, 50000 kPa	3.89e-09
398 K, 66000 kPa	3.55e-09
423 K, 1000 kPa	7.01e-09
423 K, 11000 kPa	6.36e-09
423 K, 30000 kPa	5.69e-09
423 K, 50000 kPa	5e-09
423 K, 67000 kPa	4.6e-09

CCCCCCCCCC [decane] + O=C=O
Conditions	binary diffusion coefficient [m2/s]
298 K, 1100 kPa	4.69e-09
298 K, 22000 kPa	4e-09
298 K, 45000 kPa	3.22e-09
298 K, 68000 kPa	2.84e-09
323 K, 1100 kPa	6.44e-09
323 K, 22000 kPa	5.41e-09
323 K, 46000 kPa	4.39e-09
323 K, 68000 kPa	3.91e-09
373 K, 1100 kPa	1.04e-08
373 K, 22000 kPa	8.76e-09
373 K, 44000 kPa	7.08e-09
373 K, 67000 kPa	6.34e-09
423 K, 1100 kPa	1.51e-08
423 K, 21000 kPa	1.27e-08
423 K, 43000 kPa	1.02e-08
423 K, 66000 kPa	9.17e-09

CCCCCCCCCCCC [dodecane] + O=C=O
Conditions	binary diffusion coefficient [m2/s]
298 K, 1300 kPa	3.72e-09
298 K, 24000 kPa	3.1e-09
298 K, 47000 kPa	2.65e-09
323 K, 1200 kPa	5.53e-09
323 K, 25000 kPa	4.23e-09
323 K, 46000 kPa	3.65e-09
323 K, 63000 kPa	3.44e-09
373 K, 1200 kPa	9.3e-09
373 K, 24000 kPa	7.57e-09
373 K, 46000 kPa	6.54e-09
373 K, 61000 kPa	5.98e-09
423 K, 1200 kPa	1.35e-08
423 K, 23000 kPa	1.14e-08
423 K, 46000 kPa	9.75e-09
423 K, 65000 kPa	8.65e-09

CCCCCCC [heptane] + O=C=O
binary diffusion coefficient [m2/s]
Conditions	1000 kPa	10000 kPa	30000 kPa	31000 kPa	48000 kPa	49000 kPa	50000 kPa	51000 kPa	67000 kPa	68000 kPa
298 K	7.28e-09	6.82e-09	–	5.9e-09	–	–	5.37e-09	–	–	5.06e-09
323 K	9.25e-09	8.72e-09	7.64e-09	–	–	–	–	6.95e-09	–	6.37e-09
348 K	1.14e-08	1.02e-08	9.4e-09	–	8.1e-09	–	–	–	7.89e-09	–
373 K	1.37e-08	1.25e-08	1.12e-08	–	–	9.95e-09	–	–	–	9.32e-09
398 K	1.61e-08	1.49e-08	1.31e-08	–	–	–	1.17e-08	–	–	1.09e-08
423 K	1.8e-08	1.68e-08	1.5e-08	–	–	–	1.36e-08	–	–	1.23e-08

CCCCCCCCCCCCCCCC [hexadecane] + O=C=O
Conditions	binary diffusion coefficient [m2/s]
298 K, 1000 kPa	2.49e-09
298 K, 10000 kPa	2.31e-09
298 K, 30000 kPa	2.08e-09
323 K, 1100 kPa	3.75e-09
323 K, 10000 kPa	3.41e-09
323 K, 30000 kPa	3.17e-09
323 K, 51000 kPa	2.61e-09
323 K, 69000 kPa	2.51e-09
348 K, 1000 kPa	5.13e-09
348 K, 10000 kPa	4.64e-09
348 K, 30000 kPa	4.37e-09
348 K, 50000 kPa	3.77e-09
348 K, 67000 kPa	3.49e-09
373 K, 1100 kPa	6.72e-09
373 K, 10000 kPa	6.17e-09
373 K, 30000 kPa	5.88e-09
373 K, 52000 kPa	4.84e-09
373 K, 67000 kPa	4.67e-09
398 K, 1100 kPa	8.53e-09
398 K, 29000 kPa	7.42e-09
398 K, 53000 kPa	6.27e-09
398 K, 69000 kPa	5.86e-09
423 K, 1100 kPa	1.04e-08
423 K, 10000 kPa	9.72e-09
423 K, 29000 kPa	9.16e-09
423 K, 45000 kPa	7.96e-09
423 K, 69000 kPa	7.07e-09

CCCCCC [hexane] + O=C=O
Conditions	binary diffusion coefficient [m2/s]
298 K, 1300 kPa	8.32e-09
298 K, 23000 kPa	7.27e-09
298 K, 49000 kPa	6.06e-09
298 K, 65000 kPa	5.13e-09
323 K, 1200 kPa	1.05e-08
323 K, 22000 kPa	9.27e-09
323 K, 50000 kPa	7.61e-09
323 K, 66000 kPa	7.15e-09
373 K, 1200 kPa	1.58e-08
373 K, 22000 kPa	1.34e-08
373 K, 49000 kPa	1.1e-08
373 K, 64000 kPa	1.03e-08
423 K, 1200 kPa	1.87e-08
423 K, 22000 kPa	1.79e-08
423 K, 48000 kPa	1.49e-08
423 K, 64000 kPa	1.37e-08

CCCCCCCC [octane] + O=C=O
Conditions	binary diffusion coefficient [m2/s]
298 K, 1000 kPa	6.32e-09
298 K, 11000 kPa	5.66e-09
298 K, 33000 kPa	4.72e-09
298 K, 50000 kPa	4.28e-09
298 K, 66000 kPa	3.83e-09
323 K, 900 kPa	8.19e-09
323 K, 11000 kPa	7.36e-09
323 K, 32000 kPa	6.1e-09
323 K, 51000 kPa	5.62e-09
323 K, 68000 kPa	5.1e-09
348 K, 900 kPa	1.04e-08
348 K, 11000 kPa	8.98e-09
348 K, 33000 kPa	7.7e-09
348 K, 50000 kPa	7.07e-09
348 K, 69000 kPa	6.54e-09
373 K, 1100 kPa	1.26e-08
373 K, 11000 kPa	1.11e-08
373 K, 31000 kPa	9.46e-09
373 K, 50000 kPa	8.87e-09
373 K, 67000 kPa	8.01e-09
398 K, 1100 kPa	1.48e-08
398 K, 11000 kPa	1.34e-08
398 K, 31000 kPa	1.14e-08
398 K, 51000 kPa	1.06e-08
398 K, 69000 kPa	9.67e-09
423 K, 1100 kPa	1.67e-08
423 K, 11000 kPa	1.62e-08
423 K, 29000 kPa	1.36e-08
423 K, 51000 kPa	1.27e-08
423 K, 65000 kPa	1.14e-08

Cc1ccccc1 [toluene] + O=C=O
Conditions	binary diffusion coefficient [m2/s]
298 K, 1000 kPa	5.53e-09
298 K, 11000 kPa	5.09e-09
298 K, 30000 kPa	4.77e-09
298 K, 48000 kPa	4.28e-09
298 K, 68000 kPa	3.92e-09
323 K, 1000 kPa	7.28e-09
323 K, 10000 kPa	6.78e-09
323 K, 30000 kPa	6.32e-09
323 K, 49000 kPa	5.7e-09
323 K, 66000 kPa	5.17e-09
348 K, 1000 kPa	9.26e-09
348 K, 11000 kPa	8.62e-09
348 K, 30000 kPa	8.02e-09
348 K, 48000 kPa	7.31e-09
348 K, 67000 kPa	6.54e-09
373 K, 1000 kPa	1.14e-08
373 K, 10000 kPa	1.04e-08
373 K, 30000 kPa	9.81e-09
373 K, 51000 kPa	8.94e-09
373 K, 67000 kPa	8e-09
398 K, 1000 kPa	1.38e-08
398 K, 10000 kPa	1.24e-08
398 K, 30000 kPa	1.17e-08
398 K, 48000 kPa	1.05e-08
398 K, 68000 kPa	9.6e-09
423 K, 1100 kPa	1.6e-08
423 K, 10000 kPa	1.5e-08
423 K, 30000 kPa	1.4e-08
423 K, 50000 kPa	1.23e-08
423 K, 67000 kPa	1.14e-08
